These compounds were tested against human GPR17 short isoform (Homo sapiens (Human), UniProt Q13304) (assay: GPR17 cAMP assay (hGPR17 cAMP, antagonist mode against EC80 of MDL29,951)). Settings: CHO-K1 cells stably expressing human GPR17 short isoform; EC80 of agonist MDL29,951; forskolin 15 μM.
Type: cell-based
Outline: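 CHO-K1 cells stably expressing untagged human GPR17 short isoform, 10,000/well in HBSS/10 mM HEPES/0.1% BSA pH 7.4. Compounds added with EC80 MDL29,951 and 0.5 mM IBMX, then 15 μM forskolin 5 min later, 30 min at room temperature; cAMP by TR-FRET, normalized to reference antagonist, sigmoidal fit.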

Sequence of human GPR17 short isoform (Q13304 29-367): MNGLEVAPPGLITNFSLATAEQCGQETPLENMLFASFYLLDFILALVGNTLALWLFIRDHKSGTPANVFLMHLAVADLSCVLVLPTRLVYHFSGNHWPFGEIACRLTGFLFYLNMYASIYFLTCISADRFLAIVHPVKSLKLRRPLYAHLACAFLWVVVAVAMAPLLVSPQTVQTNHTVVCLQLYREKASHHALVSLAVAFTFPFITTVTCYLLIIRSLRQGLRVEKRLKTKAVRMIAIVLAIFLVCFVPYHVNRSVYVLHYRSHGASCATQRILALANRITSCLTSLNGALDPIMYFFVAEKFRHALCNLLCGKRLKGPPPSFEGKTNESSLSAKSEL

Structure (SMILES)	IC50
COc1nc(NS(=O)(=O)c2c[nH]c3cc(Cl)ccc23)ncc1C1CC1 [Example 28, 6-chloro-n-(5-cyclopropyl-4-methoxy-pyrimidin-2-yl)-1h-indole-3-sulfonamide]	653 nM
COc1nc(NS(=O)(=O)c2c[nH]c3c(F)c(Cl)ccc23)ncc1CCC(F)F [Example 207, 6-chloro-N-[5-(3,3-difluoropropyl)-4-methoxy-pyrimidin-2-yl]-7-fluoro-1H-indole-3-sulfonamide]	14 nM
COc1nc(NS(=O)(=O)c2c[nH]c3cc(OC(F)F)ccc23)ncc1CC(F)F [Example 104, N-[5-(2,2-difluoroethyl)-4-methoxy-pyrimidin-2-yl]-6-(difluoromethoxy)-1H-indole-3-sulfonamide]	209 nM
COc1nc(NS(=O)(=O)c2c[nH]c3nc(Br)ccc23)nc(OC)c1CC(F)CF (centres unmarked) [Example 288, 6-Bromo-N-[5-(2,3-Difluoropropyl)-4,6-Dimethoxy-Pyrimidin-2-Yl]-1H-Pyrrolo[2,3-b]Pyridine-3-Sulfonamide]	57 nM
COc1nc(NS(=O)(=O)c2c[nH]c3c([S+](C)[O-])c(Cl)ccc23)nc(OC)c1OCCF (centres unmarked) [Example 278, 6-chloro-N-[5-(2-fluoroethoxy)-4,6-dimethoxy-pyrimidin-2-yl]-7-methylsulfinyl-1h-indole-3-sulfonamide]	229 nM
COc1nc(NS(=O)(=O)c2c[nH]c3c(F)c(Br)ccc23)nc(OC)c1OCC#N [Example 244, 6-bromo-N-[5-(cyanomethoxy)-4,6-dimethoxy-pyrimidin-2-yl]-7-fluoro-1H-indole-3-sulfonamide]	16 nM
COc1nc(NS(=O)(=O)c2c[nH]c3cc(Cl)ccc23)ncc1OC(C)(F)F [Example 42, 6-chloro-N-[5-(1,1-difluoroethoxy)-4-methoxy-pyrimidin-2-yl]-1H-indole-3-sulfonamide]	194 nM
COc1nc(NS(=O)(=O)c2c[nH]c3c(C#N)c(Cl)ccc23)ncc1OCCF [Example 280, 6-Chloro-7-Cyano-N-[5-(2-Fluoroethoxy)-4-Methoxy-Pyrimidin-2-Yl]-1H-Indole-3-Sulfonamide]	62 nM
COc1nc(NS(=O)(=O)c2c[nH]c3c(F)c(Cl)ccc23)ncc1OC(F)F [Example 126, 6-chloro-N-[5-(difluoromethoxy)-4-methoxy-pyrimidin-2-yl]-7-fluoro-1H-indole-3-sulfonamide]	82 nM
COc1nc(NS(=O)(=O)c2c[nH]c3cc(Br)ccc23)ncc1OCCF [Example 25, 6-bromo-N-[5-(2-fluoroethoxy)-4-methoxy-pyrimidin-2-yl]-1H-indole-3-sulfonamide]	23 nM
COc1nc(NS(=O)(=O)c2c[nH]c3cc(Cl)ccc23)nc(F)c1Br [Example 73, N-(5-bromo-4-fluoro-6-methoxy-pyrimidin-2-yl)-6-chloro-1H-indole-3-sulfonamide]	124 nM
COc1nc(NS(=O)(=O)c2c[nH]c3cc(C(F)F)ccc23)ncc1OCCF [Example 235, 6-(difluoromethyl)-N-[5-(2-fluoroethoxy)-4-methoxy-pyrimidin-2-yl]-1H-indole-3-sulfonamide]	32 nM
COc1nc(NS(=O)(=O)c2c[nH]c3nc(Br)ccc23)nc(OC)c1OCCF [Example 109, 6-bromo-N-[5-(2-fluoroethoxy)-4,6-dimethoxy-pyrimidin-2-yl]-1H-pyrrolo[2,3-b]pyridine-3-sulfonamide]	36 nM
COc1nc(NS(=O)(=O)c2c[nH]c3cc(Cl)ccc23)nc(OC)c1CC(F)F [Example 60, 6-chloro-N-[5-(2,2-difluoroethyl)-4,6-dimethoxy-pyrimidin-2-yl]-1H-indole-3-sulfonamide]	8 nM
COc1nc(NS(=O)(=O)c2c[nH]c3cc(Cl)ccc23)nc(OC)c1CCF [Example 59, 6-chloro-N-[5-(2-fluoroethyl)-4,6-dimethoxy-pyrimidin-2-yl]-1H-indole-3-sulfonamide]	13 nM
COc1nc(NS(=O)(=O)c2c[nH]c3nc(Cl)ccc23)ncc1OCCF [Example 10, 6-chloro-N-[5-(2-fluoroethoxy)-4-methoxy-pyrimidin-2-yl]-1H-pyrrolo[2,3-b]pyridine-3-sulfonamide]	96 nM
COc1nc(NS(=O)(=O)c2c[nH]c3nc(Br)ccc23)ncc1OCC(F)F [Example 161, 6-bromo-N-[5-(2,2-difluoroethoxy)-4-methoxy-pyrimidin-2-yl]-1H-pyrrolo[2,3-b]pyridine-3-sulfonamide]	72 nM
COCc1c(OC)nc(NS(=O)(=O)c2c[nH]c3cc(Cl)ccc23)nc1OC [Example 65, 6-chloro-N-[4,6-dimethoxy-5-(methoxymethyl)pyrimidin-2-yl]-1H-indole-3-sulfonamide]	61 nM
COc1nc(NS(=O)(=O)c2c[nH]c3cc(Cl)ccc23)nc(CC#N)c1Br [Example 85, N-[5-bromo-4-(cyanomethyl)-6-methoxy-pyrimidin-2-yl]-6-chloro-1H-indole-3-sulfonamide]	623 nM

Structure (SMILES)	IC50
COc1nc(NS(=O)(=O)c2c[nH]c3c(Br)cccc23)ncc1CC(F)F [Example 129, 7-bromo-N-[5-(2,2-difluoroethyl)-4-methoxy-pyrimidin-2-yl]-1H-indole-3-sulfonamide]	961 nM
COc1nc(NS(=O)(=O)c2c[nH]c3c(F)c(F)ccc23)ncc1CC(F)F [Example 164, N-[5-(2,2-difluoroethyl)-4-methoxy-pyrimidin-2-yl]-6,7-difluoro-1H-indole-3-sulfonamide]	126 nM
COc1nc(NS(=O)(=O)c2c[nH]c3c(F)c(Br)ccc23)ncc1OCCF [Example 213, 6-bromo-7-fluoro-N-[5-(2-fluoroethoxy)-4-methoxy-pyrimidin-2-yl]-1h-indole-3-sulfonamide]	34 nM
COc1nc(NS(=O)(=O)c2c[nH]c3c(Br)cccc23)nc(OC)c1CC(F)F [Example 134, 7-bromo-N-[5-(2,2-difluoroethyl)-4,6-dimethoxy-pyrimidin-2-yl]-1H-indole-3-sulfonamide]	124 nM
COc1nc(NS(=O)(=O)c2c[nH]c3c(Cl)cccc23)ncc1CC(F)F [Example 108, 7-chloro-N-[5-(2,2-difluoroethyl)-4-methoxy-pyrimidin-2-yl]-1H-indole-3-sulfonamide]	642 nM
COc1nc(NS(=O)(=O)c2c[nH]c3nc(Cl)ccc23)nc(OC)c1CCC(F)F [Example 121, 6-chloro-N-[5-(3,3-difluoropropyl)-4,6-dimethoxy-pyrimidin-2-yl]-1H-pyrrolo[2,3-b]pyridine-3-sulfonamide]	16 nM
COc1nc(NS(=O)(=O)c2c[nH]c3cc(Cl)ccc23)ncc1OC1CC1 [Example 38, 6-chloro-N-[5-(cyclopropoxy)-4-methoxy-pyrimidin-2-yl]-1H-indole-3-sulfonamide]	2680 nM
COc1nc(NS(=O)(=O)c2c[nH]c3nc(Br)ccc23)nc(OC)c1OCC#N [Example 114, 6-bromo-N-[5-(cyanomethoxy)-4,6-dimethoxy-pyrimidin-2-yl]-1H-pyrrolo[2,3-b]pyridine-3-sulfonamide]	45 nM
COc1nc(NS(=O)(=O)c2csc3nc(Cl)ccc23)ncc1OCCF [Example 27, 6-chloro-N-[5-(2-fluoroethoxy)-4-methoxy-pyrimidin-2-yl]thieno[2,3-b]pyridine-3-sulfonamide]	83 nM
COc1nc(NS(=O)(=O)c2c[nH]c3cc(Cl)ccc23)ncc1SC [Example 36, 6-chloro-N-(4-methoxy-5-methylsulfanyl-pyrimidin-2-yl)-1H-indole-3-sulfonamide]	119 nM
COC(=O)c1c(C)ccc2c(S(=O)(=O)Nc3ncc(CC(F)F)c(OC)n3)c[nH]c12 [Example 291, 3-[[5-(2,2-Difluoroethyl)-4-Methoxy-Pyrimidin-2-Yl]Sulfamoyl]-6-Methyl-1H-Indole-7-Carboxylic Acid Methyl Ester]	842 nM
COc1nc(NS(=O)(=O)c2c[nH]c3nc(C)ccc23)nc(OC)c1OCCF [Example 131, N-[5-(2-fluoroethoxy)-4,6-dimethoxy-pyrimidin-2-yl]-6-methyl-1H-pyrrolo[2,3-b]pyridine-3-sulfonamide]	116 nM
COc1nc(NS(=O)(=O)c2c[nH]c3cc(Cl)ccc23)ncc1CCC(F)(F)F [Example 178, 6-chloro-N-[4-methoxy-5-(3,3,3-trifluoropropyl)pyrimidin-2-yl]-1H-indole-3-sulfonamide]	108 nM
COc1nc(NS(=O)(=O)c2c[nH]c3c(F)c(C(F)F)ccc23)nc(OC)c1OC(F)F [Example 249, N-[5-(difluoromethoxy)-4,6-dimethoxy-pyrimidin-2-yl]-6-(difluoromethyl)-7-fluoro-1H-indole-3-sulfonamide]	36 nM
COc1nc(NS(=O)(=O)c2c[nH]c3cc(Cl)ccc23)ncc1CCCF [Example 21, 6-chloro-N-[5-(3-fluoropropyl)-4-methoxy-pyrimidin-2-yl]-1H-indole-3-sulfonamide]	12 nM
COc1nc(NS(=O)(=O)c2c[nH]c3nc(Cl)ccc23)nc(OC)c1OC(F)(F)CF [Example 171, 6-chloro-N-[4,6-dimethoxy-5-(1,1,2-trifluoroethoxy)pyrimidin-2-yl]-1H-pyrrolo[2,3-b]pyridine-3-sulfonamide]	89 nM
COc1nc(NS(=O)(=O)c2c[nH]c3cc(Cl)ccc23)ncc1C [Example 26, 6-chloro-N-(4-methoxy-5-methyl-pyrimidin-2-yl)-1H-indole-3-sulfonamide]	809 nM
COc1nc(NS(=O)(=O)c2c[nH]c3nc(Br)ccc23)nc(OC)c1CCC(F)F [Example 112, 6-bromo-N-[5-(3,3-difluoropropyl)-4,6-dimethoxy-pyrimidin-2-yl]-1H-pyrrolo[2,3-b]pyridine-3-sulfonamide]	16 nM
COc1nc(NS(=O)(=O)c2c[nH]c3nc(C(F)F)ccc23)nc(OC)c1CC(F)F [Example 194, N-[5-(2,2-difluoroethyl)-4,6-dimethoxy-pyrimidin-2-yl]-6-(difluoromethyl)-1H-pyrrolo[2,3-b]pyridine-3-sulfonamide]	25 nM

From patent US20240025883A1, “PYRIMIDIN-2-YL SULFONAMIDE DERIVATIVES” (Hoffmann-La Roche Inc., priority 2021, published 2024)
